What was measured:
Mus musculus [1] = test: Anesthetic activity determined as hypnotic dose by intravenous administration in male MF-1 mice; assay type: functional
Mus musculus [2] = test: Anesthetic activity as hypnotic dose by intravenous administration in male MF-1 mice; assay type: functional
Mus musculus [3] = test: Anesthetic activity as hypnotic dose by intravenous administration in male MF-1 mice; Convulsant; assay type: functional, organism-based
[4] = target: GABA-A receptor; anion channel; test: Inhibition of [35S]TBPS binding to GABA-A receptor rat whole brain membranes; assay type: cell membranes
Rattus norvegicus [5] = species on record: Rattus norvegicus; test: (§1) Parameter value extracted from closed loop infusions to maintain 60% Mean burst suppression ratio (BSR) for 1 h periods; assay type: functional
Rattus norvegicus [6] = test: Time to righting for Mean burst suppression ratio (BSR) after the start of a 10 s iv bolus injection of compound; assay type: functional
Rattus norvegicus [7] = test: Time to 1st 0.25 s BS epoch (s) of Mean burst suppression ratio (BSR) after the start of a 10 s iv bolus injection of compound; assay type: functional
Rattus norvegicus [8] = test: Dose for 60% Mean burst suppression ratio (BSR) after the start of a 10 s iv bolus injection of compound; assay type: functional
Rattus norvegicus [9] = test: Time for Mean burst suppression ratio (BSR) after the start of a 10 s iv bolus injection of compound; assay type: functional
Rattus norvegicus [10] = test: Time to 30% Mean burst suppression ratio (BSR) after the start of a 10 s iv bolus injection of compound; assay type: functional
Rattus norvegicus [11] = species on record: Rattus norvegicus; test: Parameter value extracted from closed loop infusions to maintain 60% Mean burst suppression ratio (BSR) for 1 hr periods; assay type: functional
Rattus norvegicus [12] = species on record: Rattus norvegicus; test: as §1; assay type: functional, organism-based

CCOCCC(C(=O)Oc1c(OC)cccc1OC)N(CCOCC)CCOCC (configuration not stated)
HD50 (Mus musculus [1]): 47 µM/kg

COCCCN(CCCOC)C(COC)C(=O)Oc1c(OC)cccc1OC (configuration not stated)
HD50 (Mus musculus [1]): 46 µM/kg

CCOCCN(CCOCC)C(COC)C(=O)Oc1c(OC)cccc1OC (configuration not stated)
HD50 (Mus musculus [1]): 25 µM/kg

COc1cccc(OC)c1OC(=O)C(CN1CCCOCC1)N1CCCOCC1 (configuration not stated)
HD50 (Mus musculus [2]): <25 µM/kg

CCOCCC(C(=O)Oc1c(OC)cccc1OC)N1CCCCCC1 (configuration not stated)
HD50 (Mus musculus [1]): 25 µM/kg

C=CCN1CCN(Cc2ccccc2)C(C(=O)Oc2c(OC)cccc2OC)C1 (configuration not stated)
HD50 (Mus musculus [2]): 31 µM/kg

CCC(=O)N1CCN(Cc2ccccc2)C(C(=O)Oc2c(OC)cccc2OC)C1 (configuration not stated)
HD50 (Mus musculus [2]): 34 µM/kg

COc1cccc(OC)c1OC(=O)C(CN1CCCCC1)N1CCOCC1 (configuration not stated)
HD50 (Mus musculus [2]): 15 µM/kg

COCC(C(=O)Oc1c(OC)cccc1OC)N1CCOCC1 (configuration not stated)
HD50 (Mus musculus [1]): 54 µM/kg

COCC(C(=O)Oc1c(OC)cccc1OC)N1CCCCC1 (configuration not stated)
HD50 (Mus musculus [1]): 146 µM/kg

COc1cccc(OC)c1OC(=O)C(CN1CCOCC1)N1CCc2ccccc2C1 (configuration not stated)
HD50 (Mus musculus [2]): 21 µM/kg

COc1cccc(OC)c1OC(=O)C(CN1CCOCC1)N1CCOCC1 (configuration not stated)
HD50 (Mus musculus [2]): 38 µM/kg

COCCC(C(=O)Oc1c(OC)cccc1OC)N1CCCCCC1 (configuration not stated)
HD50 (Mus musculus [1]): 17 µM/kg

CCOCCC(C(=O)Oc1c(OC)cccc1OC)N(CCOC)CCOC (configuration not stated)
HD50 (Mus musculus [1]): 27 µM/kg

COc1cccc(OC)c1OC(=O)C(CN1CCSCC1)N1CCOCC1 (configuration not stated)
HD50 (Mus musculus [2]): 17 µM/kg

COCC(C(=O)Oc1c(OC)cccc1OC)N1CCSCC1 (configuration not stated)
HD50 (Mus musculus [1]): 21 µM/kg

COc1cccc(OC)c1OC(=O)C1CN(C)CCN1Cc1ccccc1 (configuration not stated)
HD50 (Mus musculus [2]): 122 µM/kg

CCN1CCN(Cc2ccccc2)C(C(=O)Oc2c(OC)cccc2OC)C1 (configuration not stated)
HD50 (Mus musculus [2]): 24 µM/kg

COCCC(C(=O)Oc1c(OC)cccc1OC)N1CCOCC1 (configuration not stated)
HD50 (Mus musculus [1]): 38 µM/kg

CCOCCN(CCOCC)C(CCOC)C(=O)Oc1c(OC)cccc1OC (configuration not stated)
HD50 (Mus musculus [1]): 28 µM/kg

COCCC(C(=O)Oc1c(OC)cccc1OC)N1C=CCCC1 (configuration not stated)
HD50 (Mus musculus [1]): 22 µM/kg

COCCC(C(=O)Oc1c(OC)cccc1OC)N1CCC(OC)CC1 (configuration not stated)
HD50 (Mus musculus [1]): 21 µM/kg

COCCC(C(=O)Oc1c(OC)cccc1OC)N(CCOC)CCOC (configuration not stated)
HD50 (Mus musculus [1]): 27 µM/kg

CCOCC(C(=O)Oc1c(OC)cccc1OC)N1CCCOCC1 (configuration not stated)
HD50 (Mus musculus [1]): 20 µM/kg

CCOCCC(C(=O)Oc1c(OC)cccc1OC)N1CCOCC1 (configuration not stated)
HD50 (Mus musculus [1]): 36 µM/kg

COc1cccc(OC)c1OC(=O)C(CN1CCSCC1)N1CCSCC1 (configuration not stated)
HD50 (Mus musculus [2]): 15 µM/kg

COCCN(CCOC)C(CN1CCOCC1)C(=O)Oc1c(OC)cccc1OC (configuration not stated)
HD50 (Mus musculus [2]): 75 µM/kg

COc1cccc(OC)c1OC(=O)C(CN1CCOCC1)N1CCSCC1 (configuration not stated)
HD50 (Mus musculus [2]): 19 µM/kg

COCCC(C(=O)Oc1c(OC)cccc1OC)N1CCCCC1 (configuration not stated)
HD50 (Mus musculus [1]): 22 µM/kg

CCOCCN(CCOCC)CC(C(=O)Oc1c(OC)cccc1OC)N(CCOCC)CCOCC (configuration not stated)
HD50 (Mus musculus [3]): Convulsant

CCOCCN(CCOCC)CC(C(=O)Oc1c(OC)cccc1OC)N1CCOCC1 (configuration not stated)
HD50 (Mus musculus [3]): Convulsant

COCCN(CCOC)CC(C(=O)Oc1c(OC)cccc1OC)N(CCOC)CCOC (configuration not stated)
HD50 (Mus musculus [3]): Convulsant

COc1cccc(OC)c1OC(=O)C1CNCCN1Cc1ccccc1 (configuration not stated)
HD50 (Mus musculus [3]): Convulsant

CCOCCC(C(=O)Oc1c(OC)cccc1OC)N1CCCOCC1 (racemic)
IC50 [4]: 34.9 µM

COCCC(C(=O)Oc1c(OC)cccc1OC)N1CCCOCC1 (racemic)
IC50 [4]: 69.5 µM
HD50 (Mus musculus [1]): 20 µM/kg

CCOCCC(C(=O)Oc1c(OC)cccc1OC)N1CCCOCC1 (single isomer, unassigned)
IC50 [4]: > 100 µM
HD50 (Mus musculus [1]): 48 µM/kg

COCC(C(=O)Oc1c(OC)cccc1OC)N1CCCOCC1 (single isomer, unassigned; form 1) [listing 1 of 2 here]
Time to righting (Rattus norvegicus [5]): 6.8 min
IC50 [4]: 35.8 µM
Time (Rattus norvegicus [6]): 3.3 min
Time (Rattus norvegicus [7]): 12.9 s
Dose (Rattus norvegicus [8]): 11.4 µM/kg
Time (Rattus norvegicus [9]): 32 s
Time (Rattus norvegicus [10]): 1.3 min
Infusion rate (Rattus norvegicus [11]): 5 µM/min/kg
Time to 30% BSR (Rattus norvegicus [11]): 2.4 min
HD50 (Mus musculus [1]): 16 µM/kg

COCCC(C(=O)Oc1c(OC)cccc1OC)N1CCCOCC1 (single isomer, unassigned; form 1)
IC50 [4]: > 100 µM
HD50 (Mus musculus [1]): 30 µM/kg

COCC(C(=O)Oc1c(OC)cccc1OC)N1CCCOCC1 (single isomer, unassigned; form 1) [listing 2 of 2 here]
Stability of BSR (Rattus norvegicus [12]): 2.5%

COCC(C(=O)Oc1c(OC)cccc1OC)N1CCCOCC1 (single isomer, unassigned; form 2)
IC50 [4]: 98.3 µM
HD50 (Mus musculus [1]): 40 µM/kg

COCCC(C(=O)Oc1c(OC)cccc1OC)N1CCCOCC1 (single isomer, unassigned; form 2)
IC50 [4]: 32.5 µM

CCOCCC(C(=O)Oc1c(OC)cccc1OC)N1CCCOCC1 (stereo in doubt)
HD50 (Mus musculus [1]): 15 µM/kg

COCC(C(=O)Oc1c(OC)cccc1OC)N1CCCOCC1 (stereo in doubt; 26)
IC50 [4]: 35 µM
HD50 (Mus musculus [1]): 30 µM/kg

COCCC(C(=O)Oc1c(OC)cccc1OC)N1CCCOCC1 (stereo in doubt; 31)
HD50 (Mus musculus [1]): 15 µM/kg

CCOCCC(C(=O)Oc1c(OC)cccc1OC)N1CCCOCC1 (stereo in doubt; 39)
HD50 (Mus musculus [1]): 23 µM/kg

CC[C@H](C(=O)Oc1c(OC)cc(C)cc1OC)N(CCOC)CCOC [ORG-24447]
IC50 [4]: 29.3 µM
HD50 (Mus musculus [2]): 22 µM/kg

CC(C)c1cccc(C(C)C)c1O [PROPOFOL]
Time (Rattus norvegicus [6]): 5.5 min
Time (Rattus norvegicus [7]): 13.1 s
Dose (Rattus norvegicus [8]): 41 µM/kg
Time (Rattus norvegicus [9]): 30 s
Time (Rattus norvegicus [10]): 1.5 min
HD50 (Mus musculus [2]): 68 µM/kg

From ChEMBL document CHEMBL1136532, “Novel water soluble 2,6-dimethoxyphenyl ester derivatives with intravenous anaesthetic activity” (Bioorg Med Chem Lett, 2003)
